# From US6720423B2, “Dihydrobenzofuran and dihydrobenzothiophene 2,4-pentadienoic acid derivatives having selective activity for retinoid X (RXR) receptors” (Allergan, Inc., priority 2002, dated 2004)
# What was measured:
# RARβ = biological target: T1, RARβ (Homo sapiens, UniProt P10826); test: ligand binding assay, RARβ; conditions: second entry of cell, read-out: RAR Bind. Ki (nM) β
# T1 sequence (P10826 1-455): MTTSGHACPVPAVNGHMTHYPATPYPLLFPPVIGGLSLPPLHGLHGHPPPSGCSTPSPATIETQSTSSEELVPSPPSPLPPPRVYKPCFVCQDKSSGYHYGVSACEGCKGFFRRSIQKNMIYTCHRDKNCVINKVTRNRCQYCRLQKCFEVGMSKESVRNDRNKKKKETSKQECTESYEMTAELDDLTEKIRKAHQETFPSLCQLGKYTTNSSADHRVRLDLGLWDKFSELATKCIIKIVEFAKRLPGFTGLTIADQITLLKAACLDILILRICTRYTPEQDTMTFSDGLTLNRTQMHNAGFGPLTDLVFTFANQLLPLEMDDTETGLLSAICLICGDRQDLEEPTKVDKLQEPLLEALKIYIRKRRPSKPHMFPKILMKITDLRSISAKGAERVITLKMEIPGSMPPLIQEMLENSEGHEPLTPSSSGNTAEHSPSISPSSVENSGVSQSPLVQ
# Text: (§1) A holoreceptor transactivation assay and a ligand binding assay which measure the antagonist/agonist like activity of the compounds of the invention, or their ability to bind to the several retinoid receptor subtypes, respectively, are described in published PCT Application No. WO WO93/11755 (particularly on pages 30-33 and 37-41) published on Jun. 24, 1993, the specification of which is also incorporated herein by reference. A detailed experimental procedure for holoreceptor transactivations has been described by Heyman et al. Cell 68, 397-406, (1992); Allegretto et al. J. Biol. Chem. 268, 26625-26633, and Mangelsdorf et al. The Retinoids: Biology, Chemistry and Medicine, pp 319-349, Raven Press Ltd., New York, which are expressly incorporated herein by reference. The results obtained in this assay are expressed in EC50 numbers, as they are also in the chimeric receptor transactivation assay. The results of ligand binding assay are expressed in Kd numbers. (See Cheng et al. Biochemical Pharmacology Vol. 22 pp 3099-3108, expressly incorporated herein by reference.)
# RXRα = biological target: T2, RXRα (Homo sapiens, UniProt P19793); test: receptor transactivation assay, RXRα; type: cell-based; conditions: first entry of cell, read-out: RXR Trans. EC50 (nM) α
# T2 construct: the only RXRα plasmid printed
# T2 sequence (P19793 227-462 limits assumed): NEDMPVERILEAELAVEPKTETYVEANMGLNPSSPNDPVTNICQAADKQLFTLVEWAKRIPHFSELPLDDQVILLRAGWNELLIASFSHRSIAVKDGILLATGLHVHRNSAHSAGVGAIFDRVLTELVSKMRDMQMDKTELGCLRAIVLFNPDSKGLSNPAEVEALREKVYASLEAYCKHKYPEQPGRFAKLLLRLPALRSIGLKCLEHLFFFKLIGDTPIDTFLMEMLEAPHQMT
# Text: as §1
# RXRγ = biological target: T3, RXRγ (UniProt P28705); test: ligand binding assay, RXRγ; design: other: RXRγ; last entry of cell; conditions: last entry of cell, read-out: RXR Bind Ki (nM) γ
# T3 sequence (P28705 1-463): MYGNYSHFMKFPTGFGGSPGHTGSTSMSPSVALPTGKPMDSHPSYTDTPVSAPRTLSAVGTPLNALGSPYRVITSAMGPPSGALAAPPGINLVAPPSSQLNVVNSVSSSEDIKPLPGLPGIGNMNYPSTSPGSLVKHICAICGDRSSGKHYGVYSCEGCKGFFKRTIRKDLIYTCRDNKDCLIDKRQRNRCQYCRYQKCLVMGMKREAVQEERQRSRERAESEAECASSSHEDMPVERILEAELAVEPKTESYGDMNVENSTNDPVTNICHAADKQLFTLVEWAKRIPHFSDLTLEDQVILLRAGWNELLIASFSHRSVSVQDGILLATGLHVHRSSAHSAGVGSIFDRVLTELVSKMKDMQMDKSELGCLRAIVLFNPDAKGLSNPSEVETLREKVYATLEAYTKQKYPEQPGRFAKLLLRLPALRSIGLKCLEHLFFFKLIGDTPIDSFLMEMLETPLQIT
# Text: as §1
# RARα = biological target: T4, RARα (Homo sapiens, UniProt P10276); test: ligand binding assay, RARα; conditions: second entry of cell, read-out: RAR Bind. Ki (nM) α
# T4 sequence (P10276 1-462): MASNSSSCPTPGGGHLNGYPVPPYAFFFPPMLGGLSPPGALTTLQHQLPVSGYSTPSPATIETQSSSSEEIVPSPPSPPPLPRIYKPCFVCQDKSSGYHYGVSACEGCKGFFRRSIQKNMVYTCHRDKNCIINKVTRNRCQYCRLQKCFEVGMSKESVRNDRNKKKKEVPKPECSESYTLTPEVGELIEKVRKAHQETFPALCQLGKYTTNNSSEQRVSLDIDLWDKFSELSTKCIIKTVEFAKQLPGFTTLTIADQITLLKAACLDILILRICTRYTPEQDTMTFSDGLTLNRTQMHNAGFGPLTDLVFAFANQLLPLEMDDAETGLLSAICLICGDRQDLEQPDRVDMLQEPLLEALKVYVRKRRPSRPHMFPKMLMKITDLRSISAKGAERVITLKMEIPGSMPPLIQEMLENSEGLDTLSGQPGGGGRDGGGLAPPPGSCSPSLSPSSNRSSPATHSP
# Text: as §1
# RXRβ = biological target: T5, RXRβ (UniProt P28704); test: receptor transactivation assay, RXRβ; type: cell-based; design: RXR Trans; other: RXRβ; first entry of cell; conditions: for EC50: first entry of cell, read-out: RXR Trans. EC50 (nM) β; for RXR Trans. β, number in parentheses after EC50: parenthesised number, not defined in the patent
# T5 sequence (P28704 1-520): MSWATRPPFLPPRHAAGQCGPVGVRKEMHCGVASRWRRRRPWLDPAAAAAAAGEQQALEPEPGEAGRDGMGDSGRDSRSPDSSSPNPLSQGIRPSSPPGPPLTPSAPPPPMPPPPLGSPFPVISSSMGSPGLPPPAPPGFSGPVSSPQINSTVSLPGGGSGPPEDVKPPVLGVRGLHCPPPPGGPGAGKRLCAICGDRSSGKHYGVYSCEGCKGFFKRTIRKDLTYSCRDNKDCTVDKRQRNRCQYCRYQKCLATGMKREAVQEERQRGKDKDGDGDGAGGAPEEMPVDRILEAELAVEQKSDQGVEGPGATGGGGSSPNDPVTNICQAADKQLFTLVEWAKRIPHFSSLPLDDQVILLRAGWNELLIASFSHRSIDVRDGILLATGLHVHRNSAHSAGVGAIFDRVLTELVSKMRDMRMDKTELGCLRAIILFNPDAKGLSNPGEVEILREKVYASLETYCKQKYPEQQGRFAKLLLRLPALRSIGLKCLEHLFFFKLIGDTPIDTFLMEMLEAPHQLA
# Text: as §1
Ki (RARβ) [nM],EC50 (RXRα) [nM],Ki (RXRγ) [nM],Ki (RARα) [nM],EC50 (RXRβ) [nM],"RXR Trans. β, number in parentheses after EC50 (RXRβ)",SMILES
> 30000,0.3,3.2,> 30000,2.8,75,CCc1cc([C@@]2(C)C[C@H]2/C=C/C(C)=C/C(=O)O)cc2c1OCC2(C)C [Compound 6]
> 10000,0.2,6.1,> 10000,0.65,99,"CC(/C=C/[C@@H]1C[C@]1(C)c1cc(-c2ccccc2C)c2c(c1)C(C)(C)CO2)=C\C(=O)O [Compound 26, 5-[(1S,2S)-2-(3,3-Dimethyl-7-o-tolyl-2,3-dihydro-benzofuran-5-yl)-2-methyl-cyclopropyl]-3-methyl-penta-2E,4E-dienoic acid]"
> 10000,2.4,40,> 10000,12,108,"CC(/C=C/[C@@H]1C[C@]1(C)c1cc(Br)c2c(c1)C(C)(C)CO2)=C\C(=O)O [Compound 20, (6S,7S)-7-[5-(7-Bromo-3,3-dimethyl-2,3-dihydro-benzofuranyl)]-6,7-methano-3-methyl-octa-2E,4E-dienoic Acid]"
> 10000,8.3,6.2,> 10000,28.4,75,"CC(/C=C/[C@@H]1C[C@]1(C)c1cc(-c2ccccc2)c2c(c1)C(C)(C)CO2)=C\C(=O)O [Compound 22, 6S,7S)-7-[5-(3,3-Dimethyl-7-phenyl-2,3-dihydro-benzofuranyl)1-6,7-methano-3-methyl-octa-2E,4E-dienoic acid]"
15000,581,227,29000,> 1000,–,"COc1ccc(-c2cc([C@@]3(C)C[C@H]3/C=C/C(C)=C/C(=O)O)cc3c2OCC3(C)C)cc1 [Compound 32, (E)-3-((E)-2-{(1S,2S)-2-[7-(4-Methoxy-phenyl)-3,3-dimethyl-2,3-dihydro-benzofuran-5-yl]-2-methyl-cyclopropyl}-vinyl)-but-2-enoic acid]"
> 10000,609,602,> 10000,> 1000,–,"CC(/C=C/[C@@H]1C[C@@H]1c1ccc2c(c1)C(C)(C)CO2)=C\C(=O)O [Compound 36, (E)-3-{(E)-2-F[(1S,2S)-2-(3,3-Dimethyl-2,3-dihydro-benzofuran-5-yl)-cyclopropyl]-vinyl}-but-2-enoic acid]"
15000,0.25,2,12000,2.8,96,"CCCCCCc1cc([C@@]2(C)C[C@H]2/C=C/C(C)=C/C(=O)O)cc2c1OCC2(C)C [Compound 18, (6S,7S)-7-[5-(3,3-Dimethyl-7-hexyl-2,3-dihydro-benzofuranyl)]-6,7-methano-3-methyl-octa-2E,4E-dienoic acid]"
